These results are taken from patent US11213536B2, “Acylated compounds for the treatment of ocular pathologies” (CONSEJO SUPERIOR DE INVESTIGACIONES CIENTÍFICAS, priority 2016, dated 2022).

In data set [1] the test system is RAW 264.7 macrophages. Description: Inflammation parameters (TNF-α, NO, IL-6) in supernatant of LPS-stimulated RAW 264.7 macrophages. Format: cell-based. The settings on record: 10 μM, LPS 1 μg/ml, 24 h. Here is the method:
To determine the production of cytokines, 5×10^5 RAW 264.7 macrophages were seeded in 24-well plates (0.5 ml per well). The compounds to be tested were then added (10 μM), and the macrophages were either stimulated or not through the addition of LPS (1 μg/ml) to the culture medium. After 24 hours, the levels of IL-6 and TNF-α were measured in the supernatants by ELISA using the capture and biotinylated antibodies from BD PharMingen and PrepoTech (Gonzalez-Rey et al., Gut. 2009; 58:929-939; Sánchez et al., Stem Cells. 2011; 29:251-262). The levels of NO in the supernatants at 24 hours were measured indirectly by determining the nitrite concentration in the medium using the Griess reagent (Anderson et al., Gut. 2013; 62:1131-1141). A minimum of two independent experiments and three replicates per experiment were performed for each measured value. The values are expressed as the mean±standard deviation.
In the previous assay, the levels of various inflammation parameters were measured (TNF-α, NO, and IL-6) by ELISA after treatment with RES or with compound 2 (FIGS. 3, 4, and 5).

Data set [2] deals with Prpf31^A216P/+ (KI) mice. Description: Prpf31 A216P/+ mice RPE degeneration model, eye drops and light damage. The settings on record: for Fundus Abnormal (%) / Fundus Normal (%) / Fundus Abnormal (number) / Fundus Normal (number): 2 mM eye drops daily for two and a half months, 5,000 lux 3 h; for Fundus Abnormal (number) / Fundus Normal (number): n=10; for number of positive responses in optomotor test (visual acuity): 6 spatial frequencies 0.031-0.272 cycles/degree, vs control KI; for thickness of the retina (OCT): vs control KI group; for statistical association with normal fundi vs control KI group: chi-square / Fisher's exact test. In kind it is in vivo, mouse. An excerpt:
Prpf31^A216P/+ mice are a useful model for assessing the degeneration of the RPE. This model is characterized by an increase in the thickness of the Bruch membrane and accumulation of esterified cholesterol between said membrane and the RPE produced by a defect in the splicing of the mRNA of relevant genes of the visual cycle, such as RPE65 and RDH12. The accumulation of toxic products derived from retinol leads to an increase in ROS, infiltration of macrophages, and primary degeneration of the RPE. The degeneration of the RPE occurs late, at approximately 8 months of age. The phenotypic characteristics of this model can be exacerbated by exposure to intense light and are characterized primarily by accumulation of pseudo-drusenoid lesions and regions of atrophy observed in the fundus, with a loss of visual acuity and perception of contrast being observed, as well as a decrease in the amplitude of the c-wave of the ERG and a decrease in the thickness of the retina.
To evaluate the protective effect of the administration of our compounds in eye drops, we used heterozygous 6 month-old Prpf31^A216P/+ (KI) mice that were treated topically with 20 μl of the studied compounds applied directly on the corneal surface daily (L-V) for two and a half months. The compounds used were RES and compound 2, which were diluted in a solution of 13% hydroxypropyl-beta-cyclodextrin (CYCLO) in order to obtain a final concentration of 2 mM of each compound. After two and a half months of application of the eye drops with CICLO, RES, or compound 2, the mutant KI mice were exposed to a light source of 5,000 lux for 3 hours. Normal (WT) and KI mice were also exposed to intense light as test control without receiving any treatment. Subsequently, the fundus of the animals was evaluated, in addition to the visual acuity by means of the optomotor test, the thickness of the retina by means of optical coherence tomography (OCT), and the amplitude of the c-wave by ERG.
Two categories were used to quantify the macroscopic characteristics of the fundus: abnormal and normal fundus. The fundi categorized as abnormal were those in which the presence of autofluorescent pseudo-drusenoid lesions was observed (FIG. 11; arrows) or with regions of focal atrophy (FIG. 11; arrowheads). The percentage of abnormal fundi in the WT mice exposed to light (WT control) was 20%, and in the untreated KI (KI control) it was 90%. Meanwhile, this percentage was reduced to 30% in mice treated with compound 2 (KI 2) and only to 60% in both mice treated with CYCLE (KI CYCLE) and RES (KI RES) (table 1). […] These values were similar to those observed when comparing WT control and KI control (chi-square=7.35, P<0.01, Fisher's exact test P<0.05) and with a probability of obtaining a normal fundus in the WT control group of eight times greater than in the control KI (normal RR=8; IC95%=1.184-54.043).
To evaluate the thickness of the retina in vivo, a Stratus OCT (Zeiss) was used with a scanner adjusted to 6 lines of 3.45 mm each arranged radially. Six measurements were performed in each eye, upon which the retinal map was prepared (FIG. 12) with the thickness of the retina quantified from the ganglion cell layer to the RPE.
To evaluate the functional integrity of the RPE, the amplitude of the c-wave in the ERG was measured. The c-wave is defined as a positive slow wave that appears after the b-wave and is used to measure the functional integrity of the RPE. Since the amplitude of this wave can be affected by the integrity of the photoreceptors, it is best to normalize the results with the amplitude of the b-wave, for which reason a quantification was performed of the proportion of the amplitude of the c-wave between the amplitude of the b-wave (c-/b-wave ratio) (FIG. 13). […]

Data set [3] is described as follows: Zebrafish embryo toxicity assay. Conditions: in vivo, other: incubation of embryos with the compound, 0 to 96 hpf. The procedure:
Twenty zebrafish embryos were incubated for each concentration of compound to be tested (1 to 4). The concentrations used of each compound are 0.1 μM, 1 μM, 10 μM, 100 μM and 1 mM. The incubation period goes from 0 to 96 hours post fertilization (hpf). A negative control of 1% DMSO and a positive control of N, N-diethylaminobenzaldehyde (DEAB) are included. After the incubation period, the LC50 (lethal dose for 50% of the animals) is calculated.

[4] abbreviates: KI mice, 2 mM eye drops, light damage.

Structures are written as SMILES. Marks after values point to notes of the source that are not given here. Some results are limits rather than exact numbers.

Consider `CCCCCCCC(=O)OCC1OC(Oc2cc(O)cc(/C=C/c3ccc(O)cc3)c2)C(O)C(O)C1O` [Compound 2, trans-resveratrol-3-O-(6′-O-octanoyl)-β-D-glucopyranoside], for which the “IL-6 in culture medium” value in data set [1] (ELISA) was “similarly”. Moreover, in data set [2] (KI mice), the “Fundus Abnormal (%)” value is recorded as “(30) %”, the “Fundus Normal (%)” value was “(70)* %”, the “Fundus Abnormal (number)” value was found to be 3 and the “Fundus Normal (number)” value is given as 7. The “Fundus Abnormal (%)” value in data set [2] (KI mice, listed as compound 2) is reported as 30%. In data set [2] (setting [4]), the “autofluorescent pseudo-drusenoid lesions and regions of focal atrophy in the fundus” value is “this type of lesion was not observed”; the “c-/b-wave ratio (ERG)” value is “significantly higher”; the “number of positive responses in optomotor test (visual acuity)” value was “significantly higher”; the “thickness of the retina (OCT)” value is recorded as “significantly greater”. Also, the “autofluorescent pseudo-drusenoid lesions and regions of focal atrophy in the fundus” value in data set [2] (KI mice, 2 mM eye drops, light damage, listed as compound 2) was “prevented the formation”. In addition, the “statistical association with normal fundi vs control KI group” value in data set [2] was “statistically significant relationship”. The “RR normal (probability of normal fundus vs. KI control)” value in data set [2] (vs KI control, IC95% = 1.044-46.949) came to 7. The LC50 in data set [3] is under 140 µM.
Take `Oc1ccc(C=Cc2cc(O)cc(O)c2)cc1` [RES, resveratrol, reference compound]: in data set [1] (ELISA), the “IL-6 in culture medium” value is listed as “significantly decreases” and the “TNF-α in culture medium” value is given as “significantly decreases”. The “NO in culture medium” value in data set [1] (Griess reagent) was “significantly decreases”. In addition, in data set [2] (KI mice), the “Fundus Normal (%)” value is “(40) %”, the “Fundus Abnormal (number)” value was 6 and the “Fundus Normal (number)” value was found to be 4. Also, in data set [2] (setting [4]), the “autofluorescent pseudo-drusenoid lesions and regions of focal atrophy in the fundus” value is on record as “areas with autofluorescent punctiform yellow-white lesions (arrows) were observed”; the “number of positive responses in optomotor test (visual acuity)” value is “only significant at 0.194 cycles/degree”; the “thickness of the retina (OCT)” value is given as “significantly greater”. The “statistical association with normal fundi vs control KI group” value in data set [2] was “no statistically significant association”. The compound further gave an LC50 in data set [3] of under 1000 µM.

For orientation: LC50 means the concentration that kills 50% of the test population. A low value points to a more lethal substance.
